# Data: patent US20020002171A1, “Materials and methods for killing nematodes and nematode eggs” (priority 2000, published 2002)
# Tested on: Caenorhabditis elegans
# Assay: C. elegans L1 nematicidal dose response in 96-well plates, 5 day visual score (Example 2; same procedure for Example 7, Table 3)
# Format: in vivo
# Design: key to 5 Day Visual Score V1 / 5 Day Visual Score V2 / 5 Day Visual Score V3 / 5 Day Visual Score V4 / 5 Day Visual Score V6 / 5 Day Visual Score V5 / Initial HTS Run Visual Score / Follow-up HTS Run Visual Score: Dead: only stiff L1s (no movement); Dead (L4): worms are dead, but at a later larval stage; majority of worms are L1 (based on size) worms move when plate is tapped; majority of worms are L2 (based on size); majority of worms are L3 (based on size); majority of worms are L4 (based on size); AD: majority of worms are adult; #AD: 5 adult worms or less; B!: sterile (0-25 progeny); B: low broodsize (25-100 progeny); ˜B: moderate broodsize (100-250 progeny); <: reduced broodsize (250-500 progeny); OK: no effect (˜1000+ progeny)
# Outline: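 L1 larvae, 20 per well in NGM with 1% E. coli HB101 and antibiotic/antimycotic, exposed to six 3-fold dilutions from 70 μM down to 0.3 μM (1.4% DMSO at top). Held at 20° C; viability scored visually under 100× dissecting microscope on day 5.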
# [1] = dose response, dilution V1, day 5
# [2] = dose response, dilution V2, day 5
# [3] = dose response, dilution V3, day 5
# [4] = dose response, dilution V4, day 5
# [5] = dose response, dilution V5, day 5
# [6] = dose response, dilution V6, day 5
# [7] = 0.3 μM, C. elegans L1, scored day 5
# [8] = 23.3 μM, C. elegans L1, scored day 5
# [9] = 70 μM, C. elegans L1, scored day 5
# [10] = 0.9 μM, C. elegans L1, scored day 5
# [11] = dose response, dilution V1, 5 day
# [12] = dose response, dilution V3, 5 day
# [13] = dose response, dilution V4, 5 day
# [14] = dose response, dilution V5, 5 day
# [15] = dose response, dilution V6, 5 day
Structure (SMILES),Follow-up HTS Run % Run [%],Follow-up HTS Run Visual Score,Follow-up HTS Run mOD [mOD],Initial HTS Run % Run [%],Initial HTS Run Visual Score,Initial HTS Run mOD [mOD],5 Day Visual Score V1 [1],5 Day Visual Score V2 [2],5 Day Visual Score V3 [3],5 Day Visual Score V4 [4],5 Day Visual Score V5 [5],5 Day Visual Score V6 [6],other results
CCCCCCCCCCNc1nsc(N(C)Cc2ccccc2)n1 [compound 284],122,Dead,196,142,Dead,156,Dead,Dead,Dead,˜B (moderate broodsize (100-250 progeny)),OK (no effect (˜1000+ progeny)),OK (no effect (˜1000+ progeny)),
FC(F)(F)c1cccc(N2CCN(c3nc(NCc4ccccc4C(F)(F)F)ns3)CC2)c1 [compound 258],124,B! (sterile (0-25 progeny)),200,111,L4/AD/B!-Few Eggs,122,,,˜B (moderate broodsize (100-250 progeny)),˜B (moderate broodsize (100-250 progeny)),OK (no effect (˜1000+ progeny)),OK (no effect (˜1000+ progeny)),
CCOc1cc(CCNc2nsc(N3CCN(c4ccc(F)cc4)CC3)n2)ccc1OC [compound 267],99,Dead,160,94,Dead,103,Dead,L1,< (reduced broodsize (250-500 progeny)),OK (no effect (˜1000+ progeny)),OK (no effect (˜1000+ progeny)),OK (no effect (˜1000+ progeny)),
CCOc1ccc(C2ON=C(c3ccc(F)cc3)C2C(=O)NCCc2ccc(F)cc2)cc1 (stereo not shown) [AKC 122],,,,,,,,,,,,,5 Day Visual Score V6 [7]: OK (no effect (˜1000+ progeny)); 5 Day Visual Score V2 [8]: L1; 5 Day Visual Score V1 [9]: Dead
Fc1ccc(N2CCN(c3nc(NCc4ccc(C(F)(F)F)cc4)ns3)CC2)cc1 [AKC 135],,,,,,,,,,,,,5 Day Visual Score V5 [10]: ˜B (moderate broodsize (100-250 progeny)); 5 Day Visual Score V2 [8]: L1; 5 Day Visual Score V1 [9]: Dead
CCN(CC)C(=O)C1CCCN(c2nc(NCc3ccc(C(F)(F)F)cc3)ns2)C1 (stereo not shown) [compound 249],112,,180,98,,108,,˜B (moderate broodsize (100-250 progeny)),OK (no effect (˜1000+ progeny)),OK (no effect (˜1000+ progeny)),OK (no effect (˜1000+ progeny)),OK (no effect (˜1000+ progeny)),
CCCCNc1nsc(N2CCN(c3cccc(C(F)(F)F)c3)CC2)n1 [compound 224],122,L1,196,143,,157,Dead,Dead,< (reduced broodsize (250-500 progeny)),OK (no effect (˜1000+ progeny)),OK (no effect (˜1000+ progeny)),OK (no effect (˜1000+ progeny)),
FC(F)(F)c1cccc(N2CCN(c3nc(NCC4CCCCC4)ns3)CC2)c1 [compound 226],104,,167,107,,118,L1,˜B (moderate broodsize (100-250 progeny)),OK (no effect (˜1000+ progeny)),OK (no effect (˜1000+ progeny)),OK (no effect (˜1000+ progeny)),OK (no effect (˜1000+ progeny)),
CN(Cc1ccccc1)c1nc(NCc2ccccc2C(F)(F)F)ns1 [compound 323],120,L4/AD/B!,193,110,L3/L4/AD/B!-Clear,121,,,,,,,5 Day Visual Score V1 [11]: L4#AD/B!; 5 Day Visual Score V3 [12]: OK (no effect (˜1000+ progeny)); 5 Day Visual Score V4 [13]: < (reduced broodsize (250-500 progeny)); 5 Day Visual Score V5 [14]: OK (no effect (˜1000+ progeny)); 5 Day Visual Score V6 [15]: OK (no effect (˜1000+ progeny))
CCCCCCCCCCNc1nsc(N2CCN(c3c(C)cccc3C)CC2)n1 [compound 275],105,Dead,169,95,Dead,105,Dead,Dead,OK (no effect (˜1000+ progeny)),OK (no effect (˜1000+ progeny)),OK (no effect (˜1000+ progeny)),OK (no effect (˜1000+ progeny)),
C=CCN(CC=C)c1nc(NCC(c2ccccc2)c2ccccc2)ns1 [compound 272],110,,177,108,L3,119,Dead,B (low broodsize (25-100 progeny)),OK (no effect (˜1000+ progeny)),OK (no effect (˜1000+ progeny)),OK (no effect (˜1000+ progeny)),OK (no effect (˜1000+ progeny)),
CCCCOc1ccc(C(=O)N2CC(OCCCc3ccccc3)CC2C(=O)NCc2ccccc2OC)cc1 (stereo not shown) [AKC 126],,,,,,,,,,,,,"5 Day Visual Score V6 [7]: #AD/˜B; 5 Day Visual Score V5 [10]: ˜B (moderate broodsize (100-250 progeny)); 5 Day Visual Score V4 (2.6 μM, C. elegans L1, scored day 5): #AD/˜B"
CCCCCCCCCCCCCCCCCCN(C)c1nc(NCCc2ccc(Oc3ccccc3)cc2)ns1 [compound 270],113,,182,149,,164,Dead,,,OK (no effect (˜1000+ progeny)),OK (no effect (˜1000+ progeny)),OK (no effect (˜1000+ progeny)),
CCCCN(Cc1ccccc1)c1nc(NC2CCCCCCCCCCC2)ns1 [compound 333],76,Dead,123,93,Dead,102,,,,,,,"5 Day Visual Score V1 [11]: Dead; 5 Day Visual Score V2 (dose response, dilution V2, 5 day): Dead; 5 Day Visual Score V3 [12]: Dead; 5 Day Visual Score V4 [13]: OK (no effect (˜1000+ progeny)); 5 Day Visual Score V5 [14]: OK (no effect (˜1000+ progeny)); 5 Day Visual Score V6 [15]: OK (no effect (˜1000+ progeny))"
